According to US4439426A, “Semisynthetic macrolidic antibiotics, intermediate compounds for their preparation and related pharmaceutical compositions containing them” (priority 1981, dated 1984):
In brackets after ≈: the same amount, converted by molar mass.

Key:
Type in all cases: cell-based
[1] = system: Corynebacterium diphteriae LRP 24; test: Bacteriostatic power in liquid medium (MIC); details: Corynebacterium, LRP24; liquid medium; read-out: Minimum inhibiting concentration
Excerpt: (§1) the bacteriostatic power, expressed as the minimum inhibiting concentration (MIC) against both aerobic and anaerobic, Gram positive and Gram negative, bacterial stocks: the related results are reported in the tables 2 and 3.

[2] = system: Streptococcus pyogenes ATCC 8668 LRP 34; test: Bacteriostatic power in liquid medium (MIC); details: Streptococcus pyogenes, ATCC8668; liquid medium; read-out: Minimum inhibiting concentration
Excerpt: as §1

[3] = system: Streptococcus faecalis subs. zymogenes ATCC 12958 LRP 61; test: Bacteriostatic power in liquid medium (MIC); details: Enterococcus faecalis, ATCC12958; liquid medium; read-out: Minimum inhibiting concentration
Excerpt: as §1

[4] = system: Staphylococcus aureus ATCC 6538 P LRP 39; test: Bacteriostatic power in liquid medium (MIC); details: Staphylococcus aureus, ATCC6538; liquid medium; read-out: Minimum inhibiting concentration
Excerpt: as §1

[5] = system: Streptococcus pneumoniae ATCC 6303 LRP 35; test: Bacteriostatic power in liquid medium (MIC); details: Streptococcus pneumoniae, ATCC6303; liquid medium; read-out: Minimum inhibiting concentration
Excerpt: as §1

[6] = system: Streptococcus faecalis subs. zymogenes LRP 61; test: Minimum bactericidal concentration (MBC)
Excerpt: (§2) the bacterial power, expressed as the minimum bactericidal power (MBC) against some Gram positive aerobic stocks (table 5).

[7] = system: Corynebacterium diphteriae LRP 24; test: Minimum bactericidal concentration (MBC)
Excerpt: as §2

[8] = system: Streptococcus pyogenes ATCC 8668 LRP 34; test: Minimum bactericidal concentration (MBC)
Excerpt: as §2

[9] = system: Staphylococcus aureus ATCC 6538 P LRP 39; test: Minimum bactericidal concentration (MBC)
Excerpt: as §2

[10] = system: Streptococcus pneumoniae ATCC 6303 LRP 35; test: Minimum bactericidal concentration (MBC)
Excerpt: as §2

[11] = system: Streptococcus faecalis subsp. zymogenes ATCC 12958 LRP 61; test: Bacteriostatic power in solid medium (MIC); details: Enterococcus faecalis, ATCC12958; solid medium; read-out: Minimum inhibiting concentration
Excerpt: as §1

[12] = system: Acholeplasma laidlawii ATCC 23206 LRP 204; test: Bacteriostatic power in solid medium (MIC); details: Acholeplasma laidlawii, ATCC23206; solid medium; read-out: Minimum inhibiting concentration
Excerpt: as §1

[13] = system: Bacteroides fragilis ATCC 23745 LRP 205; test: Bacteriostatic power in solid medium (MIC); details: Bacteroides fragilis, ATCC23745; solid medium; anaerobic; read-out: Minimum inhibiting concentration
Excerpt: as §1

[14] = system: Staphylococcus aureus ATCC 14154 LRP 78; test: Bacteriostatic power in solid medium (MIC); details: Staphylococcus aureus, ATCC14154, read-out: Minimum inhibiting concentration
Excerpt: as §1

[15] = system: Staphylococcus aureus ATCC 6538P LRP 14; test: Bacteriostatic power in solid medium (MIC); details: Staphylococcus aureus, ATCC6538P; solid medium; Penycilline resistant; read-out: Minimum inhibiting concentration
Excerpt: as §1

[16] = system: Streptococcus pneumoniae ATCC 6303 LRP 52; test: Bacteriostatic power in solid medium (MIC); details: Streptococcus pneumoniae, ATCC6303; solid medium; read-out: Minimum inhibiting concentration
Excerpt: as §1

[17] = system: Proteus vulgaris ATCC 6380 LRP 13; test: Bacteriostatic power in solid medium (MIC); details: Proteus vulgaris, ATCC6380; solid medium; read-out: Minimum inhibiting concentration
Excerpt: as §1

[18] = system: Corynebacterium diphteriae LRP 24; test: Bacteriostatic power in solid medium (MIC); details: Corynebacterium, LRP24; solid medium; read-out: Minimum inhibiting concentration
Excerpt: as §1

[19] = system: Bacillus subtilis LRP 25; test: Bacteriostatic power in solid medium (MIC); details: Bacillus subtilis, LRP25; solid medium; read-out: Minimum inhibiting concentration
Excerpt: as §1

[20] = system: Streptococcus pyogenes ATCC 8668 LRP 34; test: Bacteriostatic power in solid medium (MIC); details: Streptococcus pyogenes, ATCC8668; solid medium; read-out: Minimum inhibiting concentration
Excerpt: as §1

[21] = system: Mycoplasma hominis I ATCC 14027 LRP 211; test: Bacteriostatic power in solid medium (MIC); details: Metamycoplasma hominis, ATCC14027; solid medium; read-out: Minimum inhibiting concentration
Excerpt: as §1

[22] = system: Streptococcus pneumoniae ATCC 6303 LRP 53; test: Bacteriostatic power in solid medium (MIC); details: Streptococcus pneumoniae, ATCC6303; solid medium; read-out: Minimum inhibiting concentration
Excerpt: as §1

[23] = system: Shigella sonnei LRP 5; test: Bacteriostatic power in solid medium (MIC); details: LRP5, read-out: Minimum inhibiting concentration
Excerpt: as §1

[24] = system: Staphylococcus aureus ATCC 6538P LRP 39; test: Bacteriostatic power in solid medium (MIC); details: Staphylococcus aureus, ATCC6538P; solid medium; read-out: Minimum inhibiting concentration
Excerpt: as §1

[25] = system: Neisseria gonorrhoeae ATCC 19424 LRP 214; test: Bacteriostatic power in solid medium (MIC); details: Neisseria gonorrhoeae, ATCC19424; solid medium; read-out: Minimum inhibiting concentration
Excerpt: as §1

[26] = system: Micrococcus luteus ATCC 15957 LRP 193; test: Bacteriostatic power in solid medium (MIC); details: Micrococcus luteus, ATCC15957; solid medium; Erythromycin resistant; read-out: Minimum inhibiting concentration
Excerpt: as §1

[27] = system: Klelsiella pneumoniae LRP 54; test: Bacteriostatic power in solid medium (MIC); details: solid medium; read-out: Minimum inhibiting concentration
Excerpt: as §1

[28] = system: Fusobacteriumnecrophroum ATCC 27852 LRP 210; test: Bacteriostatic power in solid medium (MIC); details: solid medium; anaerobic; read-out: Minimum inhibiting concentration
Excerpt: as §1

[29] = system: Haemophilus influenzae ATCC 19418 LRP 213; test: Bacteriostatic power in solid medium (MIC); details: Haemophilus influenzae, ATCC19418, read-out: Minimum inhibiting concentration
Excerpt: as §1

[30] = system: Escherichia coli LRP 50; test: Bacteriostatic power in solid medium (MIC); details: Escherichia coli, LRP50; solid medium; read-out: Minimum inhibiting concentration
Excerpt: as §1

[31] = system: Streptococcus pneumoniae ATCC 6303 LRP 35; test: Bacteriostatic power in solid medium (MIC); details: Streptococcus pneumoniae, ATCC6303; solid medium; read-out: Minimum inhibiting concentration
Excerpt: as §1

[32] = system: Micrococcus luteus ATCC 9341 LRP 6; test: Bacteriostatic power in solid medium (MIC); details: Micrococcus luteus, ATCC9341; solid medium; read-out: Minimum inhibiting concentration
Excerpt: as §1

[33] = system: Pseudomonas aeruginosa LRP 9; test: Bacteriostatic power in solid medium (MIC); details: Pseudomonas aeruginosa, LRP9; solid medium; read-out: Minimum inhibiting concentration
Excerpt: as §1

[34] = system: Streptococcus faecalis LRP 7; test: Bacteriostatic power in solid medium (MIC); details: Enterococcus faecalis, LRP7; solid medium; read-out: Minimum inhibiting concentration
Excerpt: as §1

[35] = system: Streptococcus pyogenes ATCC 8668 LRP 197; test: Bacteriostatic power in solid medium (MIC); details: Streptococcus pyogenes, ATCC8668; solid medium; read-out: Minimum inhibiting concentration
Excerpt: as §1

[36] = system: Clostridium perfrigens ATCC 3624 LRP 206; test: microbe, parasite or virus in culture; details: ATCC3624, solid medium, anaerobic, read-out: Minimum inhibiting concentration
Excerpt: as §1

[37] = system: Salmonella typhy LRP 8; test: microbe, parasite or virus in culture; details: LRP8, solid medium, read-out: Minimum inhibiting concentration
Excerpt: as §1

**Q.** Which results are given for `CO[C@H]1C[C@H](O[C@H]2[C@H](C)[C@@H](O[C@@H]3O[C@H](C)C[C@H](N(C)C)[C@H]3O)[C@@H](C)C[C@@]3(CO3)C(=O)[C@H](C)[C@@H](O)[C@@H](C)[C@@H](C)OC(=O)[C@@H]2C)O[C@@H](C)[C@@H]1O` [Oleandomycin, reference compound]?
**A.** MIC [1]: 0.097 µg/mL (≈ 0.141 µM); MIC [2]: 0.195 µg/mL (≈ 0.283 µM); MIC [3]: 1.56 µg/mL (≈ 2.27 µM); MIC [4]: 0.39 µg/mL (≈ 0.567 µM); MIC [5]: 0.195 µg/mL (≈ 0.283 µM); MBC/MIC [6]: > 8; MBC ([6]; Enterococcus faecalis, read-out: Minimum bactericidal concentration (MBC)): > 12.5 µg/mL; MBC/MIC [7]: 4; MBC ([7]; Corynebacterium, LRP24, read-out: Minimum bactericidal concentration (MBC)): 0.39 µg/mL (≈ 0.567 µM); MBC/MIC [8]: 16; MBC ([8]; Streptococcus pyogenes, ATCC8668, read-out: Minimum bactericidal concentration (MBC)): 3.12 µg/mL (≈ 4.54 µM); MBC/MIC [9]: 16; MBC ([9]; Staphylococcus aureus, ATCC6538, read-out: Minimum bactericidal concentration (MBC)): 6.25 µg/mL (≈ 9.09 µM); MBC/MIC [10]: 4; MBC ([10]; Streptococcus pneumoniae, ATCC6303, read-out: Minimum bactericidal concentration (MBC)): 0.78 µg/mL (≈ 1.13 µM); MIC [11]: 1.56 µg/mL (≈ 2.27 µM); MIC [12]: 6.25 µg/mL (≈ 9.09 µM); MIC [13]: 0.39 µg/mL (≈ 0.567 µM); MIC [14]: 25 µg/mL (≈ 36.3 µM); MIC [15]: 0.39 µg/mL (≈ 0.567 µM); MIC [16]: 0.195 µg/mL (≈ 0.283 µM); MIC [17]: 25 µg/mL (≈ 36.3 µM); MIC [18]: 0.097 µg/mL (≈ 0.141 µM); MIC [19]: 0.39 µg/mL (≈ 0.567 µM); MIC [20]: 0.195 µg/mL (≈ 0.283 µM); MIC [21]: 25 µg/mL (≈ 36.3 µM); MIC [22]: 0.195 µg/mL (≈ 0.283 µM); MIC [23]: 25 µg/mL (≈ 36.3 µM); MIC [24]: 0.39 µg/mL (≈ 0.567 µM); MIC [25]: 0.39 µg/mL (≈ 0.567 µM); MIC [26]: 25 µg/mL (≈ 36.3 µM); MIC [27]: 25 µg/mL (≈ 36.3 µM); MIC [28]: 6.25 µg/mL (≈ 9.09 µM); MIC [29]: 25 µg/mL (≈ 36.3 µM); MIC [30]: 25 µg/mL (≈ 36.3 µM); MIC [31]: 0.195 µg/mL (≈ 0.283 µM); MIC [32]: 0.049 µg/mL (≈ 0.0712 µM); MIC [33]: 25 µg/mL (≈ 36.3 µM); MIC [34]: 1.56 µg/mL (≈ 2.27 µM); MIC [35]: 0.195 µg/mL (≈ 0.283 µM); MIC [36]: 3.12 µg/mL (≈ 4.54 µM); MIC [37]: 25 µg/mL (≈ 36.3 µM)
